Assays:
Format in all cases: cell-based
[1] = molecular target: T1, proteins of HEK293T cells transiently overexpressing caspase-6 (Homo sapiens, UniProt Q9NQC3); settings: protein RTN4 (Q9NQC3), analysis C6
T1 sequence (Q9NQC3 1-1192): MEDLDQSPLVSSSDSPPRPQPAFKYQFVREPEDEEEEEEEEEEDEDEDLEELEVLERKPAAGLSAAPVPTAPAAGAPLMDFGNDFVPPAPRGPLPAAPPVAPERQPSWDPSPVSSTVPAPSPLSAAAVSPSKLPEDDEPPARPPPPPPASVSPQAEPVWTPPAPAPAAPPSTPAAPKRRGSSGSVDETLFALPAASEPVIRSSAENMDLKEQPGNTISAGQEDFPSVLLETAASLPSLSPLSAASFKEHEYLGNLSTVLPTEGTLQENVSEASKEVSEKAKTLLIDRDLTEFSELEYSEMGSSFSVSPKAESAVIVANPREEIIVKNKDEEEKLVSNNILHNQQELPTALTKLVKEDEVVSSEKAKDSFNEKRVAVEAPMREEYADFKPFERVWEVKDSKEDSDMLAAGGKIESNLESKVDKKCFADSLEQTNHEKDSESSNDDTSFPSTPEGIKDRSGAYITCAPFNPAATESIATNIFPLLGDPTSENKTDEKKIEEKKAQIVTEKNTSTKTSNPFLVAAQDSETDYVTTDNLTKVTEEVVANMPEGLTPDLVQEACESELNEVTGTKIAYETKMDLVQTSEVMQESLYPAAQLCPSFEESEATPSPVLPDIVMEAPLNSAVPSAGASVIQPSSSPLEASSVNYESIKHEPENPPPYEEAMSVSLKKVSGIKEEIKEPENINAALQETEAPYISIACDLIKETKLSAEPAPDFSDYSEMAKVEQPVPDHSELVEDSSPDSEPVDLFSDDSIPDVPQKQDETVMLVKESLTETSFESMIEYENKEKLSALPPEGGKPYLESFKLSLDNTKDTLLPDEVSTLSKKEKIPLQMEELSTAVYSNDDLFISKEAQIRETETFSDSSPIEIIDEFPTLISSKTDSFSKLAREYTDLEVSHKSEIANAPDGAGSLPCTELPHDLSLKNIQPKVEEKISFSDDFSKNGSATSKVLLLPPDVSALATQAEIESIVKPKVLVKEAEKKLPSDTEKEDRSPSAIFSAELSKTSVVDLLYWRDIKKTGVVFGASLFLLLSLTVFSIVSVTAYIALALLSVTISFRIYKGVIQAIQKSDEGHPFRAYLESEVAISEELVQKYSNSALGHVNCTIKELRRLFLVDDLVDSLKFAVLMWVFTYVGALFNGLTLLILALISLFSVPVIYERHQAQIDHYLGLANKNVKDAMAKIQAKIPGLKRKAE

[2] = molecular target: proteins of HEK293T cells transiently overexpressing caspase-6 (Homo sapiens, UniProt Q13085)
[3] = molecular target: proteins of HEK293T cells transiently overexpressing caspase-6 (Homo sapiens, UniProt Q9BRX8); settings: Probe; protein FAM213A Q9BRX8
Sequence of proteins of HEK293T cells transiently overexpressing caspase-6 (Homo sapiens, UniProt Q9BRX8) (Q9BRX8 whole entry): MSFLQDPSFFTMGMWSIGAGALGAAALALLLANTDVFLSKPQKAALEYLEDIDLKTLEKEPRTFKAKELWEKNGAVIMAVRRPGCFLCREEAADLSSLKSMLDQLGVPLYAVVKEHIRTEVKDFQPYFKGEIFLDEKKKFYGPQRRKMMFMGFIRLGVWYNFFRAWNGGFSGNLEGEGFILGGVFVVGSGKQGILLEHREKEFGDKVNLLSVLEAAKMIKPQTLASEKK

[4] = molecular target: T2, proteins of HEK293T cells transiently overexpressing caspase-6 (Homo sapiens, UniProt Q14103); settings: protein HNRNPD (Q14103)
T2 sequence (Q14103 1-355): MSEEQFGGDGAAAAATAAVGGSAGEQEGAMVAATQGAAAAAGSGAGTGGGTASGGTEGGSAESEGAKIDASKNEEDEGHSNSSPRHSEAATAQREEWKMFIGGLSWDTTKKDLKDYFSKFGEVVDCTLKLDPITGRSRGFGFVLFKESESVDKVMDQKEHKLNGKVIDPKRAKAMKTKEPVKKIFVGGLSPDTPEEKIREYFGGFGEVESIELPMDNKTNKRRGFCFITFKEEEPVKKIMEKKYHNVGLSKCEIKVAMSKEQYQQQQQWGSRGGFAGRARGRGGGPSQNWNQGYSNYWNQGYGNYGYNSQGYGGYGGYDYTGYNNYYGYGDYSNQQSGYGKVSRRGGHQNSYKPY

[5] = molecular target: T3, proteins of HEK293T cells transiently overexpressing caspase-6 (Homo sapiens, UniProt P09936); settings: protein UCHL1 (P09936)
T3 sequence (P09936 1-223): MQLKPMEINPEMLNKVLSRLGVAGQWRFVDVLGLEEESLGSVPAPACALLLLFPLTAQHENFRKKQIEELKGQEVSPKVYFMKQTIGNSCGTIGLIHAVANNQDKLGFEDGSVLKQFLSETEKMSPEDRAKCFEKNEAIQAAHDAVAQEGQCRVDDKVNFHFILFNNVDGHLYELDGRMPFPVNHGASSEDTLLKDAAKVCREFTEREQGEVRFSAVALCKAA

[6] = molecular target: proteins of HEK293T cells transiently overexpressing caspase-6 (Homo sapiens, UniProt Q9NNW7); settings: Probe; protein TXNRD2 Q9NNW7
Sequence of proteins of HEK293T cells transiently overexpressing caspase-6 (Homo sapiens, UniProt Q9NNW7) (Q9NNW7 37-524): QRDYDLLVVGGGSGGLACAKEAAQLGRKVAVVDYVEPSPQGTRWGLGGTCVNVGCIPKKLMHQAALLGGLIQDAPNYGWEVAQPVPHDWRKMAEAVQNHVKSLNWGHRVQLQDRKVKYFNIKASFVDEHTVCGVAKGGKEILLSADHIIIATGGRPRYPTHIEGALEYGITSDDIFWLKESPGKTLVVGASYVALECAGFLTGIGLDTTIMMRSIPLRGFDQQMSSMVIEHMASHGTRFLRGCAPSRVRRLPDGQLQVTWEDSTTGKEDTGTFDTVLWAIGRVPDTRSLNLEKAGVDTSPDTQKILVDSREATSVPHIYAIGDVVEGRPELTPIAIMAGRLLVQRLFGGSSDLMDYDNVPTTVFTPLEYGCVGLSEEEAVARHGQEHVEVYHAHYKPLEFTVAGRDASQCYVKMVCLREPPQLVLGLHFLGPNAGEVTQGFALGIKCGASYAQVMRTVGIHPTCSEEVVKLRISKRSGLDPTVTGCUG

[7] = molecular target: proteins of HEK293T cells transiently overexpressing caspase-6 (Homo sapiens, UniProt Q07812); settings: Probe; protein BAX Q07812
Sequence of proteins of HEK293T cells transiently overexpressing caspase-6 (Homo sapiens, UniProt Q07812) (Q07812 whole entry): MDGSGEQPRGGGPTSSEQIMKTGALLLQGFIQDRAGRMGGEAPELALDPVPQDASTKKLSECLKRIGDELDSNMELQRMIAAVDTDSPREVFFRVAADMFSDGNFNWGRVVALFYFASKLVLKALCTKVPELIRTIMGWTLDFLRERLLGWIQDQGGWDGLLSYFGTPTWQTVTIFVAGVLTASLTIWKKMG

Question: With C#CCOc1ccc([C@@H]2C[C@@H](C(=O)Nc3ccc(OC(F)(F)F)cc3)CN(S(=O)(=O)C=C)C2)cc1 (relative stereo) [13-t] as the compound, how does the enrich.exp.med.lin ([1]; Expt Probe) read?
Answer: 6.436

Question: What about the enrich.exp.med.log2 ([1]; Expt Probe) of the same compound?
Answer: 2.686

Question: What about the enrich.exp.med ([1]; exp_ref Probe) of the same compound?
Answer: 2.686

Question: What about the enrich.exp.med ([2]; Probe, protein ACACA Q13085) of the same compound?
Answer: -2.123

Question: And the enrich.exp.med.lin ([2]; protein ACACA (Q13085))?
Answer: 0.2296

Question: What about the enrich.exp.med.log2 ([2]; protein ACACA (Q13085)) of the same compound?
Answer: -2.123

Question: What about the enrich.exp.med [3] of the same compound?
Answer: -8.503

Question: What about the enrich.exp.med ([4]; exp_ref Probe, analysis C6) of the same compound?
Answer: -0.3533

Question: What about the enrich.exp.med.lin [4] of the same compound?
Answer: 0.7828

Question: And the enrich.exp.med.log2 [4]?
Answer: -0.3533

Question: And the enrich.exp.med.lin [5]?
Answer: 3.454

Question: And the enrich.exp.med.log2 [5]?
Answer: 1.788

Question: And the enrich.exp.med ([5]; exp_ref Probe, analysis C6)?
Answer: 1.788

Question: What about the enrich.exp.med [6] of the same compound?
Answer: -0.4404

Question: And the enrich.exp.med [7]?
Answer: -2.1832
